The test system of one data set is L-type calcium channel. Description: Whole-cell patch clamp of L-type currents in Jurkat T cells. It is filed as cell-based, human. As for the experimental part:
In these patch clamp experiments, Jurkat cells that were grown in suspension cultures were washed once with standard external solution and plated directly onto the experimental bath chamber. Cells were kept in a standard modified Ringer's solution of the following composition (in mM): […] pipette-filling solutions for voltage-gated L-type channels contained (in mM): […], the above solution was replaced by an otherwise identical extracellular solution in which 10 μM Bay K was added to the bath. Intracellular pipette-filling solutions for voltage-gated L-type channels in some cases contained (in mM): Cs-glutamate 120, NaCl 8, MgCl2 1, MgATP 2, NaGTP 0.3, Cs-BAPTA 10, Hepes-CsOH 10, pH 7.2. Patch clamp experiments were performed in the tight-seal whole-cell configuration at 24±2° C. High-resolution current recordings were acquired by a computer-based patch clamp amplifier system (EPC-9, HEKA, Lambrecht, Germany). Patch pipettes had resistances between 2-4 MΩ after filling with the standard intracellular solution. For L-type current measurements the holding potential was −80 mV and the duration of the ramp was 100 ms for optimal L-type current size. All voltages were corrected for a liquid junction potential of 10 mV between external and internal solutions. Currents were filtered at 2.3 kHz and digitized at 100 μs intervals. Capacitive currents and series resistance were determined and corrected before each voltage ramp using the automatic capacitance compensation of the EPC-9. For ICRAC analysis, the very first ramps prior to current activation were digitally filtered at 2 kHz, pooled and used for leak-subtraction of all subsequent current records. The low-resolution temporal development of currents at a given potential was extracted from the leak-corrected individual ramp current records by measuring the current amplitudes at voltages of −80 mV or +80 mV, respectively. Similarly, one of the first ramps could be used as leak-subtraction for L-type currents, as the currents developed over a time course of 6-8 seconds, indicating recovery from inactivation. Where applicable, statistical errors of averaged data are given as means±S.E.M. with n determinations and statistical significance was assessed by Student's t-test.
For measurements of the L-type current with barium as the charge carrier, whole cell voltage-clamp recordings were performed using an Axopatch 200 amplifier (Axon Instruments) in a bath consisting of 135 mM choline Cl, 10 mM HEPES, 1 mM MgCl2 and 20 mM BaCl2, adjusted to a pH of 7.2 with CsOH. The internal solution consisted of 135 mM CsCl, 10 mM HEPES, 1 mM EGTA, 1 mM EDTA, and 4 mM Mg-ATP, adjusted to a pH of 7.2 with CsOH. Pclamp 8 software was used for data acquisition (Axon Instruments). For square pulse protocols, data were filtered at 2 kHz and sampled at 10 kHz. Patch electrodes were 3.8-4.4 MΩ when filled with internal solution. Leak subtraction was performed online using a P/-4 protocol. 75% series resistance compensation was used with a 10 μs lag. Statistical references indicate the mean±s.e. After forming the whole-cell patch, cells were lifted off the bottom of the dish and placed in front of an array of perfusion tubes made of 250 μm internal diameter quartz tubing (Polymicro Technologies, Phoenix, Ariz.) connected by Teflon tubing to glass reservoirs. […]
In general terms: Patch clamp records ionic current or voltage across a cell membrane.

A further data set relates to L-type calcium channels. Nature of the data set: DM-BODIPY binding competition by flow cytometry in T cell leukemia cell lines. The arrangement: species or system human. Conditions: ten-fold excess (S)-(−)-Bay K8644 over 1 μM DM-BODIPY; Jurkat, MOLT-4, CEM, Loucy, SUP-T1. The source says: In another method of determining whether a test compound is binding L-type channels, competition with DM-BODIPY dyes is used. Such assays employ DM-BODIPY (Molecular Probes, Eugene, […].), a dihydropyridine analog that is covalently attached to the BODIPY dye. The DM-BODIPY dye binds to L-type calcium channels on the cell surface and can be assessed by flow-cytometry. Accordingly, a test compound can be used in a competition assay with a DM-BODIPY dye. If the test compound is able to compete for binding of the DM-BODIPY dye to a cell expressing an LVCa(v) polypeptide, the test compound is a candidate compound for binding to the LVCa(v) polypeptide and being a modulator of the activity of that channel.
To ascertain the levels of L-type channel expression at the cell surface, cells were stained with an ester form of DM-BODIPY (Molecular Probes, Inc., Eugene, Oreg., catalog no. D-2183) at final concentration of 1 μM in PBS (phosphate buffered saline). Competition of DM-BODIPY binding was performed with a ten-fold excess (S)-(−)-Bay K8644 (Sigma-Aldrich). Analysis was performed using flow cytometry (Becton Dickinson). FIG. 22A illustrates the results of the DM-BODIPY binding experiments. […]
A general note: Flow cytometry measures light scatter and fluorescence of single cells or particles in a stream.

The test system of data set [1] is L-type channels. Nature of the data set: Calcium flux in siRNA-expressing Jurkat cells. It is filed as cell-based, human. Particulars: pool of zeocin-resistant Jurkat clones. As for the experimental part: To assess the effect of expressing the mutant three-domain Ca(v)1.3 on calcium influx in cells, bulk calcium assays were performed using fura-2 (Molecular Probes) ratiometric imaging according to the manufacturer's recommendations. Fura-2 is a calcium-sensitive dye. When excited at short ultra-violet wavelengths (340 nm) the fluorescence of fura-2 increases with increasing calcium concentration, whereas fluorescence decreases with increasing calcium concentration at longer wavelengths (380 nm). By forming a ratio of successive images obtained at each wavelength, a measure of calcium concentration inside the fura-2 loaded cell is obtained.
(§1) This consensus sequence was used in the design of a sequence that would express an siRNA for stable expression of a hairpin loop containing the consensus sequence. The sequence was cloned into the psiRNA-hHlzeo vector (Invitrogen, San Diego, Calif.), the sequence was verified, and Jurkat cells were transfected with it. To select clones that were positive for expression of the hairpin, 400 micrograms/ml of zeocin was added 24 hours after transfection. […] Independent, individual clones were also generated in parallel. […] Thus, loss of L-type channel expression also correlates with decreased proliferation of Jurkat T cells.

For data set [2], the system named is L-type channels. Nature of the data set: DM-BODIPY staining (flow cytometry) of siRNA-expressing Jurkat cells. It is filed as cell-based, human. As for the experimental part:
as §1
First, control wild type (WT) and L-type siRNA-expressing (LT1) Jurkat T cells were stained with DM-BODIPY and analyzed by flow cytometry (Un indicates unstained cells). The LT1 cells were transfected with an siRNA sequence that targets the majority of L-type channels, and was designed based on sequence consensus of the human L-type calcium channels.

In another data set the test system is Jurkat T cells. Description: Growth and cell numbers of siRNA-expressing Jurkat clones. It is filed as cell-based, human. How it is done: as §1
Jurkat cells were stably transfected with each of the siRNA constructs and pools of clones of each were analyzed. RT-PCR was performed on samples from the clones to detect expression of Ca(v)1.3.

Regarding `CCCCCCCCCCCCCC(=O)O[C@@H]1[C@@H](C)[C@@]2(O)[C@@H](C=C(CO)C[C@]3(O)C(=O)C(C)=C[C@@H]23)[C@@H]2C(C)(C)[C@]12OC(C)=O` [PMA, phorbol 12-myristate 13-acetate], the L-type current amplitude entry with L-type calcium channel (Jurkat cells pre-treated with PMA) is “significantly increased”.

Consider `COC(=O)C1=C(C)NC(C)=C([N+](=O)[O-])[C@H]1c1ccccc1C(F)(F)F` [BayK8644, (S)-(−)-Bay K8644], for which the “DM-BODIPY binding competed by BayK8644” value in the data set on L-type calcium channels is on record as “competed”. For the same compound, in the data set with L-type calcium channel (Jurkat cells), the “reversibility of agonist effect when washed out” value was “reversible”. In the data set on L-type calcium channel (Jurkat cells tested in the presence of BayK8644), the “cells with discernible DHPR (L-type calcium channel) currents” value is recorded as “Five of eleven”. Further, the average current densities with L-type calcium channel (Jurkat cells, 10 μM BayK8644, calcium as charge carrier, n=5, +/− s.e.m.) was 1+/−0.3 pA/pF. Further, in the data set with L-type calcium channel (Jurkat cells, in presence of the L-type agonist, calcium as charge carrier), the peak current increase entry is “five-fold”.

As for “LT1 (DNA AACTGTGAGCTGGACAAGAA; chemistry not given here)”, the calcium flux entry in the data set with L-type channels [1] is on record as “marked decrease”. The “reduction in DM-BODIPY binding” value in the data set with L-type channels [2] (independent, individual Jurkat clones) is listed as “approximately 90%”. In addition, the DM-BODIPY binding entry in the data set on L-type channels [2] (pool of zeocin-resistant Jurkat clones) is “decrease”. Further, in the data set on L-type channels [2] (stable siRNA expression in Jurkat T cells, DM-BODIPY staining), the “decrease of surface expression of L-type channels” value was “about 90%”. Further, the growth of clones entry with Jurkat T cells (individual siRNA-expressing Jurkat clones) is reported as “slow rate of growth”; in the data set on Jurkat T cells (individual siRNA-expressing Jurkat clones, listed as consensus sequence), “grew very slowly”; with Jurkat T cells (pool of zeocin-resistant Jurkat clones, bulk culture), “grew more slowly”.

The record behind these values is patent publication US20050074850A1, “Novel calcium channels and uses thereof” (Synta Pharmaceuticals Corp., priority 2003, published 2005).
